Marks after values point to notes of the source that are not given here.
How the values were obtained:
normal Wistar rats = test: Pancreatic insulin content in normal rats treated with TGF-α and gastrin; type: in vivo, rat; conditions: 0.8 μg/day each i.p. for 10 days, mean±SEM
Protocol: Normal Wistar and Zucker rats were allowed normal chow ad libidum with free access to water and were acclimatized for one week prior to initiation of each study. Freshly prepared streptozotocin at a dose of 80 mg/kg body weight was administered by I.V. five to seven days after induction of diabetes, the rats were randomly allocated into groups for subsequent treatment. In examples 1-4, TGF-α and rat gastrin were reconstituted in sterile normal saline containing 0.1% BSA. According to the predetermined treatment schedule for different studies, each animal received a single, daily i.p. injection of either TGF-α or gastrin alone (4.0 μg/kg body weight) or as a 1:1 (w/w) combination (total 8.0 μg/kg) or PBS for a period of 10 days. […]
At the end of the study period (10 days), all animals were sacrificed and samples of pancreas taken as follows: five biopsy specimens (1-2 mg) of pancreatic tissue were taken from separate representative sites in each rat pancreas and immediately snap frozen in liquid nitrogen for analysis of insulin content. […] Pancreatic insulin content values were corrected according to protein content and finally expressed as μg insulin/mg pancreatic protein. All values calculated as mean±SEM and statistical significance evaluated using Student's 2-sample t-test.

isolated human islets = test: β-cell population of isolated human islets maintained in culture; type: cell-based
Protocol: The purpose of this experiment was to determine whether treatment with EGF and gastrin can increase the β-cell population of human islets in vitro and by what mechanism. Islet cell preparations were isolated from human donor pancreases (n=5) and prepared according to the approved protocol used for preparation of human islets for islet cell transplantation (Lakey JRT et al (1999) Cell transplant 8:285-292, and Ricordi C. et al. (1988) Diabetes 37:413-420). Islet cells were seeded at a concentration of 1×10^6 cells per dish and cultured for 4 weeks in serum free-MEM medium alone or supplemented with EGF (0.3 μg/ml), gastrin (1.0 μg/ml), or EGF+gastrin in combination for 4 weeks and maintained in culture for an additional 4 weeks.

Substance	Pancreatic Insulin Content (normal Wistar rats)	β-cell mass change (isolated human islets; after 4 weeks culture, EGF 0.3 μg/ml, gastrin 1.0 μg/ml, medium alone −60%)	induction of PDX-1 expression on CK19+ ductal cells (isolated human islets; human islets in culture)
TGF-α: recombinant Human TGF-α, an EGF receptor ligand	30.4 +/− 7.4* μg insulin/mg protein		
Gastrin	51.4 +/− 14.0** μg insulin/mg protein	−1%	mainly responsible for induction of PDX-1 expression

From patent US20060234373A1, “Treatment for diabetes” (priority 2002, published 2006)
